Source: patent US20250059202A1, “CRYSTAL FORM OF FUSED RING DERIVATIVE, AND PREPARATION METHOD THEREFOR AND USE THEREOF” (SHANGHAI YINGLI PHARMACEUTICAL CO., LTD, priority 2022, published 2025)
Values joined by “and” are separate entries in the source; they are usually repeats but may differ in a detail not shown here. Equal entries are not always repeated. Blank lines part the entries; values can stand above or below the molecule they belong to.

Key:
Assay type in all cases: physicochemical
[1] = Hygroscopicity under condition of high humidity
[2] = Influencing factor stability test, high temperature (60±2° C.)
[3] = Heating experiments (105° C., XRPD); conditions: about 1 hour
[4] = Accelerated stability (40±2° C., RH 75±5%)
[5] = Stability of crystal form I in solvent at room temperature (suspension equilibrium, XRPD)
[6] = Influencing factor stability test, light (4500±500 Lux, 25° C.)
[7] = Dynamic Vapor Sorption (DVS)
Method: An Advantage 1.0 dynamic moisture adsorption instrument from SMS was used to detect, the temperature is 25° C., the relative humidity range is 0%-95%, humidity change step is relative humidity 5%, when the value of the mass change rate dm/dt is less than 0.002%, it is considered equilibrium of the balance, when the mass change rate is less than 0.01%/minute within 5 minutes, it is considered as standards of equilibrium in detection process, the maximum equilibrium time is 2 hours.

[8] = Influencing factor stability test, high humidity (25° C., RH92.5±5%)
[9] = Stability of crystal form I in solvent at high temperature (50° C., XRPD)
[10] = Competition experiments of crystal form I and crystal form IV in solvents at room temperature; conditions: 7 days, each tested solvent

- hygroscopicity (in words) [1]: strong hygroscopicity
Compound: CC(C)(Cc1cc2c(-c3ccc(C#N)cc3)cncc2s1)C(=O)O [amorphous form, 3-[4-(4-Cyanophenyl)thieno[2,3-c]pyridin-2-yl]-2,2-dimethylpropanoic acid]

- Assay ([2]; 0 day): 99.1%
- Polymorph ([2]; 0 day): Crystal form I
- Total impurities ([2]; 0 day): 0.05%
- Water content ([2]; 0 day): 0.05%
- Assay ([2]; 5 days): 101.1%
- Polymorph ([2]; 5 days): Crystal form I
- Total impurities ([2]; 5 days): 0.07%
- Water content ([2]; 5 days): 0.04%
- Assay ([2]; 10 days): 100.0%
- Polymorph ([2]; 10 days): Crystal form I
- Total impurities ([2]; 10 days): 0.07%
- Water content ([2]; 10 days): 0.04%
- XRPD after heating compared to before heating [3]: unchanged
- Assay ([4]; 0 day): 99.1%
- Total impurities ([4]; 0 day): 0.05%
- Water content ([4]; 0 day): 0.04%
- Assay ([4]; 1 month): 99.2%
- Total impurities ([4]; 1 month): 0.05%
- Water content ([4]; 1 month): 0.06%
- Assay ([4]; 2 months): 98.6%
- Total impurities ([4]; 2 months): 0.03%
- Water content ([4]; 2 months): 0.03%
- Assay ([4]; 3 months): 98.5%
- Total impurities ([4]; 3 months): 0.03%
- Water content ([4]; 3 months): 0.04%
- Assay ([4]; 6 months): 99.7%
- Total impurities ([4]; 6 months): 0.05%
- Water content ([4]; 6 months): 0.10%
- crystal form after suspension equilibrium (XRPD) ([5]; 7 days, single organic solvents (methanol, ethanol, isopropanol, acetone, ethyl acetate etc.)): unchanged
- crystal form after suspension equilibrium (XRPD) ([5]; 14 days, water and methanol-, ethanol-, isopropanol-, acetone-water mixtures): unchanged
- Assay ([6]; 0 day): 99.1%
- Polymorph ([6]; 0 day): Crystal form I
- Total impurities ([6]; 0 day): 0.05%
- Water content ([6]; 0 day): 0.05%
- Assay ([6]; 5 days): 99.8%
- Polymorph ([6]; 5 days): Crystal form I
- Total impurities ([6]; 5 days): 0.07%
- Water content ([6]; 5 days): 0.04%
- Assay ([6]; 10 days): 100.3%
- Polymorph ([6]; 10 days): Crystal form I
- Total impurities ([6]; 10 days): 0.12%
- Water content ([6]; 10 days): 0.09%
- hygroscopicity (in words) [7]: non-hygroscopic
- mass increase compared with the initial mass (DVS) ([7]; relative humidity from 0 to 95%, 25° C.): 0.00944% and 0.01%
- Assay ([8]; 0 day): 99.1%
- Polymorph ([8]; 0 day): Crystal form I
- Total impurities ([8]; 0 day): 0.05%
- Water content ([8]; 0 day): 0.05%
- Assay ([8]; 5 days): 100.1%
- Polymorph ([8]; 5 days): Crystal form I
- Total impurities ([8]; 5 days): 0.07%
- Water content ([8]; 5 days): 0.06%
- Assay ([8]; 10 days): 100.6%
- Polymorph ([8]; 10 days): Crystal form I
- Total impurities ([8]; 10 days): 0.07%
- Water content ([8]; 10 days): 0.09%
- crystal form after suspension equilibration (XRPD) ([9]; 30 days, methanol-water, ethanol-water, isopropanol-water, acetone-water 50:50): unchanged
- crystal form after suspension equilibration (XRPD) ([9]; 43 days, methanol, ethanol, isopropanol, acetone or ethyl acetate): unchanged
Compound: CC(C)(Cc1cc2c(-c3ccc(C#N)cc3)cncc2s1)C(=O)O [crystal form I, 3-[4-(4-Cyanophenyl)thieno[2,3-c]pyridin-2-yl]-2,2-dimethylpropanoic acid]

- XRPD after heating compared to before heating [3]: transform to the crystal form I
Compound: CC(C)(Cc1cc2c(-c3ccc(C#N)cc3)cncc2s1)C(=O)O [crystal form III, 3-[4-(4-Cyanophenyl)thieno[2,3-c]pyridin-2-yl]-2,2-dimethylpropanoic acid]

- solid form after competition between crystal form I and crystal form IV (XRPD) [10]: transformed to the crystal form I
- XRPD after heating compared to before heating [3]: unchanged
Compound: CC(C)(Cc1cc2c(-c3ccc(C#N)cc3)cncc2s1)C(=O)O [crystal form IV, 3-[4-(4-Cyanophenyl)thieno[2,3-c]pyridin-2-yl]-2,2-dimethylpropanoic acid]

- XRPD after heating compared to before heating [3]: transform to the crystal form I
Compound: CC(C)(Cc1cc2c(-c3ccc(C#N)cc3)cncc2s1)C(=O)O [crystal form VI, 3-[4-(4-Cyanophenyl)thieno[2,3-c]pyridin-2-yl]-2,2-dimethylpropanoic acid]
